Patent US9518065B2, “IRAK inhibitors and uses thereof” (NIMBUS IRIS, INC., priority 2013, dated 2016)

Each compound was assayed against T1, IRAK4 (Homo sapiens, UniProt Q9NWZ3) (assay: IRAK-4 activity inhibition assay (Caliper)). Conditions: 3.5 nM IRAK4, 37 μM ATP, 1.5 μM Peptide 8.
T1 construct: purchased CARNA Bioscience 09-145
T1 sequence (Q9NWZ3 1-460): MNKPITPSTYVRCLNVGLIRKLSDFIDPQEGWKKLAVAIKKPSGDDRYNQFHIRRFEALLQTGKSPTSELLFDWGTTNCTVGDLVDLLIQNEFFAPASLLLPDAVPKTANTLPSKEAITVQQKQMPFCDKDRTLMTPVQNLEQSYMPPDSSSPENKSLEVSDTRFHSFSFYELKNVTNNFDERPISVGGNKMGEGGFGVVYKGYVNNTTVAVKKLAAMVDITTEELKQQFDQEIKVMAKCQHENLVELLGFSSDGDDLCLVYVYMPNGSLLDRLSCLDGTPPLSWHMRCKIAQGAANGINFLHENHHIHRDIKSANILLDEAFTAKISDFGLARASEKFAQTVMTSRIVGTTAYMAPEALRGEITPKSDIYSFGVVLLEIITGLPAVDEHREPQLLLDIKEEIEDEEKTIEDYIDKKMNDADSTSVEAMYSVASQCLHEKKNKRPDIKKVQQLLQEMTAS
Format: biochemical
Procedure: A 1× kinase base buffer was prepared from 50 mM HEPES, pH 7.5 and 0.0015% Brij-35. A stop buffer was prepared from 100 mM HEPES, pH 7.5, 0.015% Brij-35, 0.2% Coating Reagent #3, and 50 mM EDTA.
Test compound was diluted to 50× of the final desired highest inhibitor concentration in reaction by 100% DMSO. 100 ul of this compound dilution was transferred to a well in a 96-well plate. For example, if desired highest inhibitor concentration in IC50 determination is 100 uM, then prepare 5000 uM of compound DMSO solution in this step.
Test compound was serially diluted by transferring 30 μl to 60 μl of 100% DMSO in the next well and so forth for a total of 10 concentrations. 100 μl of 100% DMSO was added to two empty wells for no compound control and no enzyme control in the same 96-well plate.
A new 96-well plate was marked as intermediate plate. 5 μl of compound serial dilution was transferred from source plate to the corresponding wells of the intermediate plate. 45 μl of 1× kinase base buffer (KB buffer) was added to each well of the intermediate plate. The intermediate plate was placed for 10 min on a shaker.
5 μl of each well was transferred from the 96-well intermediate plate to a 384-well plate in duplicates. For example, A1 of the 96-well plate is transferred to A1 and A2 of the 384-well plate. A2 of the 96-well plate is transferred to A3 and A4 of the 384-well plate, and so on.
IRAK4 and DTT in 1× kinase base buffer was added. The 2.5× enzyme mix contained 8.8 nM IRAK4 and 5 mM DTT.
Peptide 8, ATP, MgCl2 and MnCl2 were added in the 1× kinase base buffer. The 2.5× peptide mix contained 3.75 μM peptide 8, 92.5 μM ATP, 12.5 mM MgCl2 and 2.5 mM MnCl2.
Assay plate already contained 5 μl of compound in 10% DMSO. Added 10 μl of 2.5× enzyme solution to each well of the 384-well assay plate, except no enzyme control wells. The final concentration of IRAK4 in reaction was 3.5 nM. Added 10 μl of 1× kinase base buffer to no enzyme control wells in the assay plate. Incubated at room temperature for 10 min.
Added 10 μl of 2.5× peptide solution to each well of the 384-well assay plate. The final concentration of Peptide 8 and ATP was 1.5 μM and 37 μM, respectively. Incubated at 28° C. for 40 minutes. Added 25 μl of stop buffer to stop reaction. Collected data on Caliper.
Copied conversion % data from Caliper program. Converted conversion % values to percent inhibition values. Percent inhibition=(max-conversion %)/(max-min)*100, where “max” means the conversion % of DMSO control and “min” means the conversion % of no enzyme control.
The compound numbers correspond to the compound numbers in Table 1. Compounds having an activity designated as “A” provided an IC50≦1 μM; compounds having an activity designated as “B” provided an IC50 of 1-5 μM; compounds having an activity designated as “C” provided an IC50 of ≧5 μM. “NA” stands for “not assayed.”
In the case of `CC(=O)c1nc2c(N[C@H]3CC[C@H](N4CCOCC4)CC3)nc(Nc3cnn(C)c3)nc2s1` [Compound I-41, 1-(5-((1-methyl-1H-pyrazol-4-yl)amino)-7-(((1r,4r)-4-morpholinocyclohexyl)amino)thiazolo[5,4-d]pyrimidin-2-yl)ethan-1-one], the IC50 is reported as ≤ 1000 nM.
For `Cc1nc2c(O[C@H]3CC[C@H](N4CCOCC4)CC3)nc(Nc3cnn(C(C)C)c3)nc2s1` [Compound I-57, N-(1-isopropyl-1H-pyrazol-4-yl)-2-methyl-7-(((1r,4r)-4-morpholino-cyclohexyl)oxy)thiazolo[5,4-d]pyrimidin-5-amine], the IC50 was ≤ 1000 nM.
With `Cn1cc(Nc2nc(N[C@H]3CC[C@H](N4CCOCC4)CC3)c3nc(C4CC4)sc3n2)cn1` [Compound I-49, 2-cyclopropyl-N5-(1-methyl-1H-pyrazol-4-yl)-N7-((1r,4r)-4-morpholinocyclohexyl)thiazolo[5,4-d]pyrimidine-5,7-diamine] the IC50 was ≤ 1000 nM.
`CCc1nc2c(N[C@H]3CC[C@H](N(C)CC(=O)N4CCCC4)CC3)nc(Nc3cnn(C)c3)nc2s1` [Compound I-15, 2-(((1r,4r)-4-((2-ethyl-5-((1-methyl-1H-pyrazol-4-yl)amino)-thiazolo[5,4-d]pyrimidin-7-yl)amino)cyclohexyl)(methyl)amino)-1-(pyrrolidin-1-yl)ethan-1-one] was tested, and the IC50 was ≤ 1000 nM.
`Cn1cc(Nc2nc(N[C@H]3CC[C@H](N4CCOCC4)CC3)c3nc(C(C)(F)F)sc3n2)cn1` [Compound I-48, 2-(1,1-difluoroethyl)-N5-(1-methyl-1H-pyrazol-4-yl)-N7-((1r,4r)-4-morpholinocyclohexyl)thiazolo[5,4-d]pyrimidine-5,7-diamine] was tested, and the IC50 was ≤ 1000 nM.
Work on `CCc1nc2c(N[C@H]3CC[C@H](N4CCOCC4)CC3)ncnc2s1` [Compound I-5, 2-ethyl-N-((1r,4r)-4-morpholinocyclohexyl)thiazolo[5,4-d]pyrimidin-7-amine] yielded an IC50 of 1000 to 5000 nM.
For `Cn1cc(Nc2nc(N[C@H]3CC[C@H](N4CCOCC4)CC3)c3ncsc3n2)cn1` [Compound I-46, N5-(1-methyl-1H-pyrazol-4-yl)-N7-((1r,4r)-4-morpholinocyclo-hexyl)thiazolo[5,4-d]pyrimidine-5,7-diamine], the IC50 was ≤ 1000 nM.
`CCc1nc2c(N[C@H]3CC[C@H](N4CCOCC4)CC3)nc(N)nc2s1` [Compound I-31, 2-ethyl-N7-((1r,4r)-4-morpholinocyclohexyl)thiazolo[5,4-d]pyrimidine-5,7-diamine] was tested, and the IC50 was ≥ 5000 nM.
`CCc1nsc2ncnc(N[C@H]3CC[C@H](N4CCOCC4)CC3)c12` [Compound I-20, 3-ethyl-N-((1r,4r)-4-morpholinocyclohexyl)isothiazolo[5,4-d]pyrimidin-4-amine] gave an IC50 of 1000 to 5000 nM.
In the case of `Cn1cc(Nc2nc(N[C@H]3CC[C@H](N4CCOCC4)CC3)c3nc(C(F)F)sc3n2)cn1` [Compound I-45, 2-(difluoromethyl)-N5-(1-methyl-1H-pyrazol-4-yl)-N7-((1r,4r)-4-morpholinocyclohexyl)thiazolo[5,4-d]pyrimidine-5,7-diamine], the IC50 is reported as ≤ 1000 nM.
With `CC(C)n1cc(Nc2nc(N[C@H]3CC[C@H](N4CCOCC4)CC3)c3ncsc3n2)cn1` [Compound I-53, N5-(1-isopropyl-1H-pyrazol-4-yl)-N7-((1r,4r)-4-morpholino-cyclohexyl)thiazolo[5,4-d]pyrimidine-5,7-diamine] the IC50 was ≤ 1000 nM.
In the case of `CCc1nc2c(N(CC)[C@H]3CC[C@H](N4CCOCC4)CC3)ncnc2s1` [Compound I-6, N,2-diethyl-N-((1r,4r)-4-morpholinocyclohexyl)thiazolo[5,4-d]pyrimidin-7-amine], the IC50 is reported as ≥ 5000 nM.
With `[2H]C([2H])([2H])c1nc2c(N[C@H]3CC[C@H](N4CCOCC4)CC3)nc(Nc3cnn(C)c3)nc2s1` [Compound I-58, 2-(methyl-d3)-N5-(1-methyl-1H-pyrazol-4-yl)-N7-((1r,4r)-4-morpholinocyclohexyl)thiazolo[5,4-d]pyrimidine-5,7-diamine] the IC50 was ≤ 1000 nM.
With `c1nc2c(N[C@H]3CC[C@H](N4CCOCC4)CC3)nc(Nc3cnn(C4CCOCC4)c3)nc2s1` [Compound I-51, N7-((1r,4r)-4-morpholinocyclohexyl)-N5-(1-(tetrahydro-2H-pyran-4-yl)-1H-pyrazol-4-yl)thiazolo[5,4-d]pyrimidine-5,7-diamine] the IC50 was ≤ 1000 nM.
For `OCCn1cc(Nc2nc(N[C@H]3CC[C@H](N4CCOCC4)CC3)c3ncsc3n2)cn1` [Compound I-54, 2-(4-((7-(((1r,4r)-4-morpholinocyclohexyl)amino)thiazolo[5,4-d]pyrimidin-5-yl)amino)-1H-pyrazol-1-yl)ethan-1-ol], the IC50 was ≤ 1000 nM.
With `CC(C)c1nc2c(N[C@H]3CC[C@H](N4CCOCC4)CC3)nc(Nc3cnn(C)c3)nc2s1` [Compound I-47, 2-isopropyl-N5-(1-methyl-1H-pyrazol-4-yl)-N7-((1r,4r)-4-morpholinocyclohexyl)thiazolo[5,4-d]pyrimidine-5,7-diamine] the IC50 was ≤ 1000 nM.
`CCc1nc2c(O[C@H]3CC[C@H](N(C)C)CC3)ncnc2s1` [Compound I-3, (1r,4r)-4-((2-ethylthiazolo[5,4-d]pyrimidin-7-yl)oxy)-N,N-dimethylcyclo-hexanamine] was tested, and the IC50 was ≥ 5000 nM.
In the case of `Cc1nc2c(N[C@H]3CC[C@H](N4CCOCC4)CC3)nc(N)nc2s1` [Compound I-43, 2-methyl-N7-((1r,4r)-4-morpholinocyclo-hexyl)thiazolo[5,4-d]pyrimidine-5,7-diamine], the IC50 is reported as ≥ 5000 nM.
Work on `CCc1nc2c(N[C@H]3CC[C@H](N(C)C)CC3)ncnc2s1` [Compound I-1, (1r,4r)-N1-(2-ethylthiazolo[5,4-d]pyrimidin-7-yl)-N4,N4-dimethylcyclohexane-1,4-diamine] yielded an IC50 of 1000 to 5000 nM.
In the case of `Cn1cc(Nc2nc(N[C@H]3CC[C@H](N4CCOCC4)CC3)c3nc(C(F)(F)F)sc3n2)cn1` [Compound I-44, N5-(1-methyl-1H-pyrazol-4-yl)-N7-((1r,4r)-4-morpholino-cyclohexyl)-2-(trifluoromethyl)thiazolo[5,4-d]pyrimidine-5,7-diamine], the IC50 is reported as ≤ 1000 nM.
Work on `Cn1cc(Nc2nc(N[C@H]3CC[C@H](N4CCOCC4)CC3)c3nc(C(C)(C)C)sc3n2)cn1` [Compound I-50, 2-(tert-butyl)-N5-(1-methyl-1H-pyrazol-4-yl)-N7-((1r,4r)-4-morpholinocyclohexyl)thiazolo[5,4-d]pyrimidine-5,7-diamine] yielded an IC50 of 1000 to 5000 nM.
In the case of `c1nc2c(N[C@H]3CC[C@H](N4CCOCC4)CC3)nc(Nc3cnn(CC4CCOCC4)c3)nc2s1` [Compound I-52, N7-((1r,4r)-4-morpholinocyclohexyl)-N5-(1-((tetrahydro-2H-pyran-4-yl)methyl)-1H-pyrazol-4-yl)thiazolo[5,4-d]pyrimidine-5,7-diamine], the IC50 is reported as ≤ 1000 nM.
For `CC(C)c1nc2c(N[C@H]3CC[C@H](N(C)C)CC3)ncnc2s1` [Compound I-2, (1r,4r)-N-1-(2-isopropylthiazolo[5,4-d]pyrimidin-7-yl)-N4,N4-dimethylcyclohexane-1,4-diamine], the IC50 was 1000 to 5000 nM.
`Cc1nc2c(N[C@H]3CC[C@H](N(C)C)CC3)ncnc2s1` [Compound I-4, (1r,4r)-N1,N1-dimethyl-N4-(2-methylthiazolo[5,4-d]pyrimidin-7-yl)cyclo-hexane-1,4-diamine] was tested, and the IC50 was 1000 to 5000 nM.
In the case of `CCc1nc2c(N[C@H]3CC[C@H](N4CCC(F)(F)CC4)CC3)nc(Nc3cnn(C)c3)nc2s1` [Compound I-11, N7-((1r,4r)-4-(4,4-difluoropiperidin-1-yl)cyclohexyl)-2-ethyl-N5-(1-methyl-1H-pyrazol-4-yl)thiazolo[5,4-d]pyrimidine-5,7-diamine], the IC50 is reported as 1000 to 5000 nM.
